Assay results published in patent US6455585B1, “Esters derived from substituted phennyl-cyclohexyl compounds” (Vita Invest, S.A., priority 1998, dated 2002).

Assays:
Male Swiss mice [1] = test: Hot plate method, analgesic activity in mice; assay type: in vivo; details: for change in vivo at 15 mg/kg: Mus musculus, ip, 0.5 h, hot plate test, intraperitoneal adm., n = 20, read-out: % response time increase; for % response time increase on hot plate: 20 μmol/kg, oral adm., n = 20-40
Experimental: The pharmacological activity of the products of the present invention was tested in vivo in several experimental models, which are known to evaluate the pain in animals.
The method that was used is described by Eddy N. B. and Leimbach D. (J. Pharm. Exp. Ther. 107: 385-393, 1953). The analgesic effect of the products was evaluated analysing the behaviour of the animals on a hot surface at 55° C.±1° C.
Male Swiss mice weighing 20-25 g were used. The compounds being tested were administered orally or intraperitoneally 1 hour o 30 minutes before starting the test, respectively.
The process consisted of placing the animals on the plate and keeping them in a Plexiglas cylinder 25 cm high and 21 cm […]. The time the animals took to jump off the hot surface was determined. The animals were selected before starting the test so that those that took longer than 10 seconds to jump off were not included in the group that would receive treatment.
30 minutes after administering the product being tested, the test was repeated and the maximum time it took the animals to jump off was again recorded.
The results are expressed as the […] of jump time increase calculated as follows: [formula]
In order to determine the duration of the analgesic effect of the orally administered products, the analgesic activity was evaluated on the hot plate 1, 3, 6, 8, and 24 hours after the administration of the product, as well as the control group which received treatment only with the vehicle. The base responses were evaluated at 30 and 5 minutes prior to administering the products.

Male Swiss mice [2] = test: Determination of the DL50 (acute single dose oral toxicity); assay type: in vivo; details: oral single administration, 14 days observation
Experimental: b) Determination of the DL50 in the Products.
(EUDRA/S/87/011, Single Dose Toxicity, European Directive 75/318/EEC) (ICH S4, Toxicity Studies, single dose and repeated dose, CPMP vol III Feb. 87, Single dose toxicity)
Male Swiss mice of the same batch weighing 20-25 g are used in order to estimate the acute toxicity of the products.
Prior to administering the products, the animals were forced to fast for 12 hours with no intake of food but free access to water. Several subgroups of 10 animals were randomly selected and orally given increasing doses of the products in single administration, after which they remained under observation for a period of 14 days with free access to water and food. Finally, the number of dead animals of each subgroup was quantified and the value of the DL50 was calculated (1-2).

SMILES	change in vivo at 15 mg/kg (Male Swiss mice [1]) [%]	% response time increase on hot plate (Male Swiss mice [1]) [%]	DL50 approx. Oral adm. (Male Swiss mice [2]) [mg/kg]
COc1ccc2cc(C(C)C(=O)Oc3cccc(C4(O)CCCCC4CN(C)C)c3)ccc2c1 (stereo not drawn) [EXAMPLE 2, 3-(2-Dimethylaminomethyl-1-hydroxyyclohexyl)-phenyl 2-(6-Methoxy-naphthalen-2-yl)-propionate]	539 ± 50	–	–
CC(C)Cc1ccc(C(C)C(=O)Oc2cccc(C3=C(CN(C)C)CCCC3)c2)cc1 (stereo not drawn) [EXAMPLE 4, 3-(2-Dimethylaminomethyl-cyclohex-1-enyl)-phenyl 2-(4-Isobutyl-phenyl)-propionate]	333 ± 134	–	–
CN(C)CC1CCCCC1(O)c1cccc(OC(=O)c2ccccc2O)c1 (stereo not drawn) [EXAMPLE 6, 3-(2-Dimethylaminomethyl-1-hydroxy-cyclohexyl)-phenyl (RR-SS)-2-hydroxybenzoate]	546 ± 63	248 ± 72	~550
CN(C)CC1CCCCC1(O)c1cccc(OC(=O)C2CCn3c(C(=O)c4ccccc4)ccc32)c1 (stereo not drawn) [EXAMPLE 3, 3-(2-Dimethylaminomethyl-1-hydroxycyclohexyl)-phenyl 5-Benzoyl-2,3-dihydro-1H-pyrrolizine-1-carboxylate]	416 ± 146	–	–
CC(C)Cc1ccc(C(C)C(=O)Oc2cccc(C3(O)CCCCC3CN(C)C)c2)cc1 (stereo not drawn) [EXAMPLE 1, 3-(2-Dimethylaminomethyl-1-hydroxycyclohexyl)-phenyl 2-(4-Isobutyl-phenyl)-propionate]	568 ± 100	210 ± 88	~900
CN(C)CC1=C(c2cccc(OC(=O)c3ccccc3O)c2)CCCC1 [EXAMPLE 7, 3-(2-Dimethylaminomethyl-cyclohex-1-enyl)-phenyl 2-Hydroxybenzoate]	634 ± 42	–	–
COc1cccc(C2(O)CCCCC2CN(C)C)c1 (single isomer, unassigned) [Tramadol, (1R, 2R or 1S, 2S)-2-[(dimethylamino)methyl]-1-(3-methoxyphenyl) cyclohexanol, reference compound]	218 ± 98	87 ± 23	~350
COc1ccc2cc(C(C)C(=O)Oc3cccc(C4=C(CN(C)C)CCCC4)c3)ccc2c1 (stereo not drawn) [EXAMPLE 5, 3-(2-Dimethylaminomethyl-cyclohex-1-enyl)-phenyl 2-(6-Methoxy-naphthalen-2-yl)-propionate]	356 ± 151	–	–
CN(C)CC1CCCCC1(O)c1cccc(OC(=O)c2ccccc2OC(=O)N(C)C)c1 (stereo not drawn) [EXAMPLE 8, 3-(2-Dimethylaminomethyl-1-hydroxy-cyclohexyl)-phenyl (RR-SS)-2-dimethylcarbamoyloxy-benzoate]	327 ± 65	–	–
